Data from patent US9526728B2, “Medical use of a DPP-4 inhibitor” (Boehringer Ingelheim International GmbH, priority 2014, dated 2016).

Experiments:
[1] = tested on: subtotally nephrectomized (SNx) rats; assay: Cardiac catheterization, pressure volume loops (cardiac function); format: in vivo, rat; details: in comparison to vehicle-treated SNx rats, linagliptin 1.5 mg/kg/day or sitagliptin 20 mg/kg/day, seven weeks
Source text: (§1) Briefly, animals were anesthetized with 2.5% inhaled isoflurane, the right kidney was removed via subcapsular nephrectomy and infarction of approximately two thirds of the left kidney was achieved via selective ligation of two out of the three or four branches of the left renal artery. Sham surgery consisted of laparotomy and manipulation of both kidneys before wound closure. Rats were followed for eight weeks after surgery. […] All rats were housed in a stable environment and allowed free access to Reverse Osmosis water and standard rat chow.
Cardiac catheterization was performed as previously published. Briefly, rats were anesthetized (2% isoflurane), placed on a warming pad (37 °C), intubated and ventilated using positive pressure. The right internal carotid artery was ligated cranially and a 2F miniaturized combined conductance catheter-micromanometer (Model SPR-838, Millar Instruments, Houston, Tex.) was inserted into the carotid artery and advanced into the left ventricle until stable pressure volume (PV) loops were obtained. […] All PV loops were obtained with the ventilator turned off for 5-10 seconds and the animal apneic. […] A range of functional parameters were then calculated using the pressure conductance data (Millar analysis software PVAN 3.4).

[2] = tested on: subtotally nephrectomized (SNx) rats; assay: Immunohistochemistry for cardiac collagen I; format: in vivo, rat; details: SNx rats vs vehicle-treated SNx; seven weeks treatment
Source text: as §1
Immunohistochemistry for fibrillar collagen type I (Southern Biotech, Birmingham, Ala.) was performed as previously described with the antibody used at a concentration of 1:400. Stained heart sections were scanned with the Aperio ScanScope system (Aperio, Vista, Calif.) and analysed with ImageScope (Aperio). Interstitial collagen I was determined as the proportional area of positive immunostaining in 10 randomly selected fields (×100 magnification).

[3] = tested on: subtotally nephrectomized (SNx) rats; assay: Cardiac gene expression (real time PCR); format: in vivo, rat; details: SNx rats vs vehicle-treated SNx; seven weeks treatment
Source text: Briefly, animals were anesthetized with 2.5% inhaled isoflurane, the right kidney was removed via subcapsular nephrectomy and infarction of approximately two thirds of the left kidney was achieved via selective ligation of two out of the three or four branches of the left renal artery. Sham surgery consisted of laparotomy and manipulation of both kidneys before wound closure. Rats were followed for eight weeks after surgery. […] All rats were housed in a stable environment and allowed free access to Reverse Osmosis water and standard rat chow. RNA was isolated from homogenized rat heart tissue using TRIzol reagent (Life Technologies, Grand Island, N.Y.). Total RNA (4 μg) was treated with RQ1 DNase (1U/μl) (Promega, Madison, Wis.). DNase treated RNA (4 μg) was reverse-transcribed in a final volume of 25 μl using 0.5 μl AMV-RT (Roche Diagnostics, Laval, Quebec) in the manufacturer's buffer containing 1 mmol/L dNTPs, 0.5 μl RNase inhibitor (Roche) and 2 μg random hexamers (GE Healthcare Life Sciences, Baie d'Urfe, Quebec). […]

[4] = CKD population; need for dose adjustment; cited from earlier work
[5] = Metabolic parameters (HbA1c, active GLP-1); format: in vivo, rat; details: seven weeks; for plasma active GLP-1 levels: both sham and SNx rats, linagliptin 1.5 mg/kg/day or sitagliptin 20 mg/kg/day; for HbA1c: sham and SNx rats, linagliptin 1.5 mg/kg/day or sitagliptin 20 mg/kg/day oral gavage
Source text: as §1
Blood glucose was measured with Accu-check Advantage (Roche, Mississauga, Ontario). HbA1c was measured using A1cNow+ (Bayer, Sunnyvale, Calif.). Active GLP-1 was determined using active GLP-1 (v2) kit (Meso Scale Discovery, Rockville, Md.).
Sham and SNx rats treated with vehicle, linagliptin and sitagliptin. Heart weights and kidney weights were increased in SNx rats relative to sham. HbA1c was unchanged in all treatment groups.

[6] = tested on: subtotally nephrectomized (SNx) rats; assay: Myocyte hypertrophy (H&E stained sections); format: in vivo, rat; details: SNx rats vs vehicle-treated SNx; seven weeks treatment
Source text: as §1
Cardiac myocyte hypertrophy was determined on haematoxylin and eosin (H&E) stained sections, as previously reported. Myocyte cross sectional area was determined on H&E stained sections as adapted from the methods described by Frustaci and colleagues.

[7] = tested on: sham and subtotally nephrectomized (SNx) rats; assay: Renal structure (glomerulosclerosis index, JG-12 and collagen IV immunohistochemistry); format: in vivo, rat; details: either sham or SNx rats; seven weeks treatment
Source text: as §1
A minimum of 50 glomeruli were examined in PAS-stained kidney sections from each rat. […] Glomerulosclerosis was defined as basement membrane thickening, mesangial hypertrophy and capillary occlusion. A glomerulosclerosis index (GSI) was then calculated using the formula:
[formula] Where Fi is the percentage of glomeruli in the rat kidney with a given score (i).
Immunohistochemistry for glomerular capillary density and tubulointerstitial collagen IV Immunohistochemistry of kidney tissue was performed as previously described with antibodies in the following concentrations: JG-12 1:1000 (Bender Medsystems GbdH, Vienna, Austria) and collagen IV 1:100 (Southern Biotech). Kidney sections were scanned with the Aperio ScanScope system and analysed with ImageScope, as already described. Glomerular endothelial (JG-12) immunostaining was determined in 30 glomerular profiles from each rat kidney section. For estimation of tubulointerstitial collagen IV, the proportional area of positive immunostaining (excluding glomeruli) was determined in 10 randomly selected cortical fields (×100 magnification).

[8] = tested on: subtotally nephrectomized (SNx) rats; assay: Renal function (blood pressure, urine protein excretion, GFR); format: in vivo, rat; details: seven weeks treatment; for GFR: FITC-inulin clearance
Source text: as §1
For estimation of urine protein excretion, rats were individually housed in metabolic cages for 24 h with free access to tap water and standard diet. Urine protein was measured with the benzethonium chloride method. Urinary excretion of markers of renal injury was determined using Rat KidneyMAP v1.0 (Myriad RBM, Austin, Tex.) and expressed as the ratio to urine creatinine determined by autoanalyzer. Glomerular filtration rate (GFR) was determined by FITC-inulin clearance, as previously described.

[9] = tested on: patients with type 2 diabetes; details: recent meta-analysis; cited from earlier work

Row | Compound | end diastolic pressure volume relationship (EDPVR) [1] | cardiac collagen I protein [2] | cardiac collagen I mRNA [3] | route of clearance [4] | plasma active GLP-1 levels [5] | HbA1c [5] | cardiomyocyte size determined in H&E stained sections [6] | cortical tubulointerstitial collagen IV immunostaining [7] | glomerular capillary density (JG-12 immunostaining) [7] | GFR [8] | blood pressure [8] | proteinuria [8] | albuminuria [9]
1 | N[C@@H](CC(=O)N1CCn2c(nnc2C(F)(F)F)C1)Cc1cc(F)c(F)cc1F [sitagliptin] | significantly lower | attenuation in the overexpression | attenuation in the overexpression | cleared in the urine | similarly increased | unchanged | neither cardiomyocyte size determined in H&E stained sections (FIGS. 2C1 and 2C2) nor α-MHC:β-MHC ratio were changed | None of these markers of renal structural injury were affected | None of these markers of renal structural injury were affected | neither linagliptin nor sitagliptin significantly affected | neither linagliptin nor sitagliptin significantly affected | neither linagliptin nor sitagliptin significantly affected | –
2 | Cn1c(=O)cc(N2CCC[C@@H](N)C2)n(Cc2ccccc2C#N)c1=O [alogliptin] | – | – | – | cleared in the urine | – | – | – | – | – | – | – | – | –
3 | CC#CCn1c(N2CCC[C@@H](N)C2)nc2c1c(=O)n(Cc1nc(C)c3ccccc3n1)c(=O)n2C [linagliptin, 1-[(4-methyl-quinazolin-2-yl)methyl]-3-methyl-7-(2-butyn-1-yl)-8-(3-(R)-amino-piperidin-1-yl)-xanthine] | significantly lower | attenuation in the overexpression | attenuation in the overexpression | secreted via the bile | similarly increased | unchanged | neither cardiomyocyte size determined in H&E stained sections (FIGS. 2C1 and 2C2) nor α-MHC:β-MHC ratio were changed | None of these markers of renal structural injury were affected | None of these markers of renal structural injury were affected | neither linagliptin nor sitagliptin significantly affected | neither linagliptin nor sitagliptin significantly affected | neither linagliptin nor sitagliptin significantly affected | reduction in albuminuria
4 | N#C[C@@H]1C[C@@H]2C[C@@H]2N1C(=O)[C@@H](N)C12CC3CC(CC(O)(C3)C1)C2 [saxagliptin] | – | – | – | cleared in the urine | – | – | – | – | – | – | – | – | –
